Legend:
Assay type in all cases: cell-based
Cav1.2/β3/α2δ = target: T1, Cav1.2/β3/α2δ (Homo sapiens, UniProt Q13936); assay: Two-electrode voltage clamp of Cav1.2/β3/α2δ expressed in Xenopus oocytes (Ba2+ as charge carrier); conditions: for ICa I/I0: relative current at 0 mV
T1 construct: expressed in transfected cells; host or cells: Xenopus laevis oocytes (cRNA injection, Cav1.2:β3:α2δ 2:1:1 by weight)
Protocol: (§1) Molecular Biology cRNA encoding Kv7.1 (UniProt: P51787), KCNE1 (UniProt: P15382.1), Nav1.5 (UniProt: Q14524.1), Nav β1 (UniProt: […]), Nav β3 (UniProt: […]), Cav1.2 (GenBank: CAA84346), Cav β3 (Uniprot: P54286), Cav β2 (Uniprot: P54288), and Cav α2δ (Uniprot: P13806) were transcribed using the mMessage mMachine T7 kit (Ambion). 50 ng of cRNA was injected into defolliculated Xenopus laevis oocytes (Ecocyte, Austin, TX): For Kv7.1/KCNE1 channel expression, we injected a 3:1, weight:weight (Kv7.1:KCNE1) cRNA ratio. For Nav1.5 channel expression, we injected a 2:1, weight:weight (Nav1.5:β1) cRNA ratio. For Cav1.2 channel expression, we injected a 2:1:1, weight:weight (Cav1.2:β3:α2δ) cRNA ratio. The exact stoichiometry for channel macromolecular complexes, including α -subunits and auxiliary subunits is not clear for many ion channels. For example, there have been multiple reported stoichiometries for Kv7.1:KCNE1 determined in heterologous expression systems with some groups reporting flexible stoichiometry of 4 Kv7.1: 1–4 KCNE1 and others reporting a fixed stoichiometry of 4 Kv7.1: 2 KCNE1 ([Murray et al., 2016]; [Nakajo et al., 2010]). The ratios of cRNA of α- and auxiliary subunits that we injected in Xenopus laevis oocytes are such that all α-subunits are assumed to be in complex with auxiliary subunits. This allows a more homogenous population of ion channels with auxiliary subunits. One caveat to expressing ion channels as macromolecular complexes is that there are many other auxiliary subunits that could associate with the channel α -subunit that are present in cardiomyocytes and have the potential to alter PUFA-induced effects, but that are not being co-expressed in our experiments. In this work, we are co-expressing some of the auxiliary subunits that have been primarily reported to associate with their respective α -subunits in cardiomyocytes. Following cRNA injection, cells were incubated for 72–96 hr in standard ND96 solution (96 mM NaCl, 2 mM KCl, 1 mM MgCl2, 1.8 mM CaCl2, 5 mM HEPES; pH = 7.5) containing 1 mM pyruvate at 16°C prior to electrophysiological recordings.
(§2) Xenopus laevis oocytes were recorded in the two-electrode voltage clamp (TEVC) configuration. Recording pipettes were filled with 3 M KCl. The recording chamber was filled with ND96 (96 mM NaCl, 2 mM KCl, 1 mM MgCl2, 1.8 mM CaCl2, 5 mM HEPES; pH 7.5). For Cav1.2/β3/α2δ channel recordings, Xenopus oocytes were injected with 50 nl of 100 mM EGTA and incubated at 10°C for 30 min prior to electrophysiological recordings in order to sequester cytosolic calcium. In addition, Cav1.2/β3/α2δ channel recordings were done in Ca^2+-free solutions, using Ba^2+ as the charge carrier, to prevent calcium-dependent inactivation of Cav1.2/β3/α2δ channels. Calcium-dependent inactivation was not studied in this work, due to the presence of large calcium-activated chloride currents present in Xenopus laevis oocytes. PUFAs were obtained from Cayman Chemical (Ann Arbor, MI.) or synthesized in house (Linköping, Sweden) through methods previously described ([Bohannon et al., 2020]) and kept at −20 °C as 100 mM stock solutions in ethanol. Serial dilutions of the different PUFAs were prepared from stocks to make 0.2 μM, 0.7 μM, 2 μM, 7 μM, and 20 μM concentrations in ND96 solutions (pH = 7.5). PUFAs were perfused into the recording chamber using the Rainin Dynamax Peristaltic Pump (Model RP-1) (Rainin Instrument Co., Oakland, CA. USA).
(§3) Electrophysiological recordings were obtained using Clampex 10.3 software (Axon, pClamp, Molecular Devices). To measure Kv7.1/KCNE1 currents we apply PUFAs as the membrane potential is stepped every 30 s from −80 mV to 0 mV for 5 s before stepping to −40 mV and back to −80 mV to ensure that the PUFA effects on the current at 0 mV reached steady state. A voltage-step protocol was used to measure the current vs. voltage (I-V) relationship before PUFA application and after the PUFA effects had reached steady state for each concentration of PUFA. […]

Kv7.1/KCNE1 = target: T2, Kv7.1/KCNE1 (Homo sapiens, UniProt P51787); assay: Two-electrode voltage clamp of Kv7.1/KCNE1 expressed in Xenopus oocytes; set-up: Fitted slope factor of conductance vs voltage relationship: unit of the concentration uncertain; conditions: for IKs I/I0: relative current at 0 mV
T2 construct: cRNA encoding Kv7.1 (UniProt: P51787), KCNE1 (UniProt: P15382.1); expressed in transfected cells; host or cells: Xenopus laevis oocytes (cRNA injection, Kv7.1:KCNE1 3:1 by weight)
Protocol: as §1
as §2, with “Serial dilutions of the different PUFAs were prepared from stocks to make 0.2 μM, 0.7 μM, 2 μM, 7 μM, and 20 μM concentrations in ND96 solutions (pH = 7.5).” left out
as §3, with “PUFA. Cells were held at −80 mV followed by a hyperpolarizing prepulse to −140 mV.” for “PUFA.”

Nav1.5/β1 = target: T3, Nav1.5/β1 (Homo sapiens, UniProt Q14524); assay: Two-electrode voltage clamp of Nav1.5/β1 expressed in Xenopus oocytes; conditions: for INa I/I0: relative current at 0 mV
T3 construct: Nav1.5 (UniProt: Q14524.1); expressed in transfected cells; host or cells: Xenopus laevis oocytes (cRNA injection, Nav1.5:β1 2:1 by weight)
Protocol: as §1, §2, §3

T1 sequence (Q13936 1-2138 isoform Q13936-20): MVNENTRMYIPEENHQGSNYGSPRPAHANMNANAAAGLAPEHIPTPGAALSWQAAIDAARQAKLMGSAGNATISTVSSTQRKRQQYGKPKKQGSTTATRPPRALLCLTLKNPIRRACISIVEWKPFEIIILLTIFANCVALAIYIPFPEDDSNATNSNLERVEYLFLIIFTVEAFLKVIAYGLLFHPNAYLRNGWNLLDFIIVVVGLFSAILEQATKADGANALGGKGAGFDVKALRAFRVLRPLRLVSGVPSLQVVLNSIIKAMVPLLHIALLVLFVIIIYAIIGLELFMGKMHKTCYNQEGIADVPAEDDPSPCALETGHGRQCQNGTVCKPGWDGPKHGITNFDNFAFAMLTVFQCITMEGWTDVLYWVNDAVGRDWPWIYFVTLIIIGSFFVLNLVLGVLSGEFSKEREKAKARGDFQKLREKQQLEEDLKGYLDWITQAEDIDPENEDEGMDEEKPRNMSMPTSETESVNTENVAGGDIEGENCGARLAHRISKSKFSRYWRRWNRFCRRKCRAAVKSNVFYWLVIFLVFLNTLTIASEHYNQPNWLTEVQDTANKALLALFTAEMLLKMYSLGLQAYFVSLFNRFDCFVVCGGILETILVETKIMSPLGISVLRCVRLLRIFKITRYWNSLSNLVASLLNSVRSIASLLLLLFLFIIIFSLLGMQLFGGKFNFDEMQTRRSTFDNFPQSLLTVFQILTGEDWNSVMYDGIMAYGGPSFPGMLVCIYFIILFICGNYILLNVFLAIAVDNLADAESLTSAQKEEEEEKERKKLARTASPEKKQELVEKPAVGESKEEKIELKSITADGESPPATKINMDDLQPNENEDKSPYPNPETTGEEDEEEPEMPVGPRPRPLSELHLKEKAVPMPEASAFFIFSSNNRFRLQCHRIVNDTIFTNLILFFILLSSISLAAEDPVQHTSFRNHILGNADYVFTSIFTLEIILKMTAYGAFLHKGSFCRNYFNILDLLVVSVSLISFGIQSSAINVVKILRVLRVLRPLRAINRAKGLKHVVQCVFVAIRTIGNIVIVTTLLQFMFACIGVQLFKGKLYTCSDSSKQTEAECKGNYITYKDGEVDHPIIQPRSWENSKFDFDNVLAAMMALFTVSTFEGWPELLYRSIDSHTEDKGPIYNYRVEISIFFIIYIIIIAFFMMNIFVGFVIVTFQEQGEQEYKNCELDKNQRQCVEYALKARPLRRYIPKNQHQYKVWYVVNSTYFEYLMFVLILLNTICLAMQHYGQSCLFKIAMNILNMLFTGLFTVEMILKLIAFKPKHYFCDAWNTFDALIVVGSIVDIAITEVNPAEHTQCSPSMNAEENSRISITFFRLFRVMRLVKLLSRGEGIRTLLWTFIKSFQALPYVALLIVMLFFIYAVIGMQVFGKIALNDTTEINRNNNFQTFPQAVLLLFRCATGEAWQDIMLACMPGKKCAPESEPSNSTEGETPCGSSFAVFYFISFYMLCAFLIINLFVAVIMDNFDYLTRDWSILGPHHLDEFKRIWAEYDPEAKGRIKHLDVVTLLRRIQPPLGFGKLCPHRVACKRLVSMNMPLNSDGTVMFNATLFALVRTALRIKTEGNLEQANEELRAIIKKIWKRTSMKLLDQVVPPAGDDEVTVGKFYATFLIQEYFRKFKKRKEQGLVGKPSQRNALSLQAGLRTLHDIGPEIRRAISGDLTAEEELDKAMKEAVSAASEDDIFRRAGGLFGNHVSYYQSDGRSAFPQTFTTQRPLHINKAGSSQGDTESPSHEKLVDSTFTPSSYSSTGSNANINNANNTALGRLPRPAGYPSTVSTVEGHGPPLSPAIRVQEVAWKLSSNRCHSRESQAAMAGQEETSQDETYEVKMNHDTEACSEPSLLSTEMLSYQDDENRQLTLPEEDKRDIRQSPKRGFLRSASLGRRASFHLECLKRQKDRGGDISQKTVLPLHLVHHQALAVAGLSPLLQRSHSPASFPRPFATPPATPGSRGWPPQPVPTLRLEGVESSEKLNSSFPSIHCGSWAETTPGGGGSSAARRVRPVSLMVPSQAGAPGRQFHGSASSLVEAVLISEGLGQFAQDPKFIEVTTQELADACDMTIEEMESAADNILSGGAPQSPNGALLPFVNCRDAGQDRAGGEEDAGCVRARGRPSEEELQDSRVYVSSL
T1 sequence (P54286 whole entry partner): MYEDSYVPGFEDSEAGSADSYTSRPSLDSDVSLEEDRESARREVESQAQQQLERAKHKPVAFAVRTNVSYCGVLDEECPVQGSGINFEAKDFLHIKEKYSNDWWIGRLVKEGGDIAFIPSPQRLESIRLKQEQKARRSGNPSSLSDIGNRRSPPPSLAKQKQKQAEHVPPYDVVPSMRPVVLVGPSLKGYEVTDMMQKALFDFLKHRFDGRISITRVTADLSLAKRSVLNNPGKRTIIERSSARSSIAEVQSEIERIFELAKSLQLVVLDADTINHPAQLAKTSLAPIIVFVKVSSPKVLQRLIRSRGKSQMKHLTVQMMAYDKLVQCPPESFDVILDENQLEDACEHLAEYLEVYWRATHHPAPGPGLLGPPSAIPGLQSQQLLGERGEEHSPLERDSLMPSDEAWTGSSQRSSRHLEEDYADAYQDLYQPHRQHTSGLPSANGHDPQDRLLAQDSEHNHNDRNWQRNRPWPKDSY
T1 sequence (P13806 27-960 partner): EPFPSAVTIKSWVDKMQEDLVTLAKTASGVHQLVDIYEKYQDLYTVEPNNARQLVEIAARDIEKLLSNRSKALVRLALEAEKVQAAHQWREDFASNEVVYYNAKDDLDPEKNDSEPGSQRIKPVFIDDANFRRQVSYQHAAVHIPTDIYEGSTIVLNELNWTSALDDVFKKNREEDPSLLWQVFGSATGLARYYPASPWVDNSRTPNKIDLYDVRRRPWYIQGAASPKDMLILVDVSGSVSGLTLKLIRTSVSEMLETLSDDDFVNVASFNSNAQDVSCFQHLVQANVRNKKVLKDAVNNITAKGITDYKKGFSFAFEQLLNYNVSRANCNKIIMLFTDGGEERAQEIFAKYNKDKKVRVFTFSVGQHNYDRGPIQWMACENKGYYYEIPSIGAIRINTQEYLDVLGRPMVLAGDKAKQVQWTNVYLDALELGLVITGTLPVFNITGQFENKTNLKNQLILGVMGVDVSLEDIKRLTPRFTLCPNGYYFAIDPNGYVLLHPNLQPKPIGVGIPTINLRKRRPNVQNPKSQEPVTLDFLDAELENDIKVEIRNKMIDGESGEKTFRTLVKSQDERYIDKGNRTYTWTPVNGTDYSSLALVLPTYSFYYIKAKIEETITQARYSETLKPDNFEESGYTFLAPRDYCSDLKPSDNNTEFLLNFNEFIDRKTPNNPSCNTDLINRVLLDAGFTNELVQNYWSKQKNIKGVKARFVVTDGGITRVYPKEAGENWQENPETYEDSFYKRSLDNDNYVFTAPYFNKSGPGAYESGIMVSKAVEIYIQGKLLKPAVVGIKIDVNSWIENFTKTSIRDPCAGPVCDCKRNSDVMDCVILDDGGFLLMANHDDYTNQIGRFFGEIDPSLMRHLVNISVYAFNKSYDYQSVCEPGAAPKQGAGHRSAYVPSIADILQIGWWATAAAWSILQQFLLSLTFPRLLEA
T1 sequence (P13806 961-1106 partner): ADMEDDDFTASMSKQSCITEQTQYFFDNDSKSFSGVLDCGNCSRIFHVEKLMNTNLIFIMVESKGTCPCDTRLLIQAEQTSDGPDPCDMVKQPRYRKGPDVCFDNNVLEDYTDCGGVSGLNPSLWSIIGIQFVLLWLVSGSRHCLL

- Fitted slope factor of conductance vs voltage relationship (Kv7.1/KCNE1; 0.2 μM): 18.7 ± 1.1 mV
- Gmax/Gmax0 (Kv7.1/KCNE1; 0.2 μM): 1.1 ± 0.04
- ΔV0.5 (voltage dependence of activation) (Kv7.1/KCNE1; 0.2 μM): -1.5 ± 0.4 mV
- IKs I/I0 (Kv7.1/KCNE1; 0.2 μM): 1.1 ± 0.03
- Fitted slope factor of conductance vs voltage relationship (Kv7.1/KCNE1; 0.7 μM): 18.6 ± 1.2 mV
- Gmax/Gmax0 (Kv7.1/KCNE1; 0.7 μM): 1.3 ± 0.1
- ΔV0.5 (voltage dependence of activation) (Kv7.1/KCNE1; 0.7 μM): -5.0 ± 1.7 mV
- IKs I/I0 (Kv7.1/KCNE1; 0.7 μM): 1.4 ± 0.08
- Fitted slope factor of conductance vs voltage relationship (Kv7.1/KCNE1; 2 μM): 18.6 ± 1.3 mV
- Gmax/Gmax0 (Kv7.1/KCNE1; 2 μM): 1.6 ± 0.2
- ΔV0.5 (voltage dependence of activation) (Kv7.1/KCNE1; 2 μM): -17.5 ± 2.0 mV
- IKs I/I0 (Kv7.1/KCNE1; 2 μM): 2.9 ± 0.5
- Fitted slope factor of conductance vs voltage relationship (Kv7.1/KCNE1; 7 μM): 18.1 ± 1.2 mV
- Gmax/Gmax0 (Kv7.1/KCNE1; 7 μM): 1.7 ± 0.1
- ΔV0.5 (voltage dependence of activation) (Kv7.1/KCNE1; 7 μM): −45.3 ± 2.9 mV
- Gmax/Gmax0 (Kv7.1/KCNE1; 20 μM): 1.1 ± 0.9
- ΔV0.5 (voltage dependence of activation) (Kv7.1/KCNE1; 20 μM): -70.5 ± 6.0 mV
- IKs I/I0 (Kv7.1/KCNE1; 20 μM): 3.1 ± 0.4
SMILES: CC/C=C\C/C=C\C/C=C\C/C=C\C/C=C\C/C=C\CCC(=O)NCCS(=O)(=O)O [DHA-taurine]
- Gmax/Gmax0 (Cav1.2/β3/α2δ; 0.2 μM): 1.0 ± 0.05
- ΔV0.5 (voltage dependence of inactivation) (Cav1.2/β3/α2δ; 0.2 μM): 1.7 ± 0.7 mV
- ICa I/I0 (Cav1.2/β3/α2δ; 0.2 μM): 0.9 ± 0.04
- Gmax/Gmax0 (Cav1.2/β3/α2δ; 0.7 μM): 1.1 ± 0.1
- ΔV0.5 (voltage dependence of inactivation) (Cav1.2/β3/α2δ; 0.7 μM): 1.6 ± 0.8 mV
- ICa I/I0 (Cav1.2/β3/α2δ; 0.7 μM): 1.0 ± 0.03
- Gmax/Gmax0 (Cav1.2/β3/α2δ; 2 μM): 1.1 ± 0.07
- ΔV0.5 (voltage dependence of inactivation) (Cav1.2/β3/α2δ; 2 μM): 1.7 ± 1.0 mV
- ICa I/I0 (Cav1.2/β3/α2δ; 2 μM): 1.0 ± 0.03
- Gmax/Gmax0 (Cav1.2/β3/α2δ; 7 μM): 1.1 ± 0.1
- ΔV0.5 (voltage dependence of inactivation) (Cav1.2/β3/α2δ; 7 μM): 0.2 ± 0.8 mV
- Gmax/Gmax0 (Cav1.2/β3/α2δ; 20 μM): 0.8 ± 0.1
- ΔV0.5 (voltage dependence of inactivation) (Cav1.2/β3/α2δ; 20 μM): -3.8 ± 0.9 mV
- ICa I/I0 (Cav1.2/β3/α2δ; 20 μM): 0.7 ± 0.1
- Gmax/Gmax0 (Nav1.5/β1; 0.2 μM): 1.0 ± 0.01
- ΔV0.5 (voltage dependence of inactivation) (Nav1.5/β1; 0.2 μM): -0.5 ± 0.3 mV
- INa I/I0 (Nav1.5/β1; 0.2 μM): 1.0 ± 0.03
- Gmax/Gmax0 (Nav1.5/β1; 0.7 μM): 0.9 ± 0.01
- ΔV0.5 (voltage dependence of inactivation) (Nav1.5/β1; 0.7 μM): -2.6 ± 0.5 mV
- INa I/I0 (Nav1.5/β1; 0.7 μM): 1.0 ± 0.03
- Gmax/Gmax0 (Nav1.5/β1; 2 μM): 0.6 ± 0.03
- ΔV0.5 (voltage dependence of inactivation) (Nav1.5/β1; 2 μM): -9.4 ± 1.6 mV
- INa I/I0 (Nav1.5/β1; 2 μM): 0.7 ± 0.04
- Gmax/Gmax0 (Nav1.5/β1; 7 μM): 0.1 ± 0.01
- ΔV0.5 (voltage dependence of inactivation) (Nav1.5/β1; 7 μM): −28.5 ± 0.6 mV
- Gmax/Gmax0 (Nav1.5/β1; 20 μM): 0.04 ± 0.01
- ΔV0.5 (voltage dependence of inactivation) (Nav1.5/β1; 20 μM): -63.2 ± 10.9 mV
- INa I/I0 (Nav1.5/β1; 20 μM): 0.1 ± 0.03

Source: paper PMC7159882, “Polyunsaturated fatty acid analogues differentially affect cardiac NaV, CaV, and KV channels through unique mechanisms” (eLife, 2020)
